Patent publication US6602708B1, “Neural cultures” (CellFactors plc, priority 1994, dated 2003)

Legend:
raphe clone 1 cells = raphe clone 1 cells at non-permissive temperature (39° C.), survival and differentiation; assay type: cell-based, rat; conditions: plus fibroblast growth factor, up to 72 h
Experimental: The above referred to homogeneous population of raphe clone 1 cells can be caused to enter apoptosis using any of the following four methods.
1. Temperature was raised to non-permissive value (39° C.) for up to 72 h, in the presence or absence of fibroblast growth factor or epidermal growth factor. Neural cells developed the ability to take up 5-hydroxytryptophan (5HTP, the precursor of 5HT), 5HT itself, and to decarboxylate 5-hydroxytryptophan to 5HT. […] The 5HT derived from 5HTP was released, although the mechanism of such release is not known.
2. Temperature was raised to non-permissive value (39° C.) for up to 72 h, in the presence of cyclic AMP plus fibroblast growth factor.
3. Temperature was raised to non-permissive value (39° C.) for up to 96 h, in the presence of retinoic acid (10 μM) plus fibroblast growth factor.

low-affinity carrier = experiment: serotonin uptake by clone 921203-6 cells after shift to 39° C.; assay type: cell-based, rat; conditions: clone 921203-6, 39° C.
Experimental: Mesencephalic and medullary raphe neural cells from the E12-E13 rat embryo (E1=day of conception) were immortalised using a temperature-sensitive oncogene as described earlier (Stringer et al., 1994). Under permissive conditions, ie in the presence of 5 ng/ml of fibroblast growth factor (FGF)(Sigma, product no. F3391) and at 33° C., the immortalised raphe precursor cells replicate. […] No calcium channels were demonstrable using patch clamp analysis.

SMILES	extent of fibre development (raphe clone 1 cells)	Km (low-affinity carrier) [µM]
Nc1ncnc2c1ncn2[C@@H]1O[C@@H]2COP(=O)(O)O[C@H]2[C@H]1O [cyclic AMP]	increase	
NCCc1c[nH]c2ccc(O)cc12 [serotonin, 5-hydroxytryptamine]		56
